Four molecules from US11242337B2, “Compounds useful for treating gastrointestinal tract disorders” (Ardelyx, Inc., priority 2017, dated 2022) can be followed below.

For assay [1], the target named is T1, NHE3 (Homo sapiens, UniProt P48764).
T1 construct: expressed in transfected cells
T1 sequence (P48764 26-834): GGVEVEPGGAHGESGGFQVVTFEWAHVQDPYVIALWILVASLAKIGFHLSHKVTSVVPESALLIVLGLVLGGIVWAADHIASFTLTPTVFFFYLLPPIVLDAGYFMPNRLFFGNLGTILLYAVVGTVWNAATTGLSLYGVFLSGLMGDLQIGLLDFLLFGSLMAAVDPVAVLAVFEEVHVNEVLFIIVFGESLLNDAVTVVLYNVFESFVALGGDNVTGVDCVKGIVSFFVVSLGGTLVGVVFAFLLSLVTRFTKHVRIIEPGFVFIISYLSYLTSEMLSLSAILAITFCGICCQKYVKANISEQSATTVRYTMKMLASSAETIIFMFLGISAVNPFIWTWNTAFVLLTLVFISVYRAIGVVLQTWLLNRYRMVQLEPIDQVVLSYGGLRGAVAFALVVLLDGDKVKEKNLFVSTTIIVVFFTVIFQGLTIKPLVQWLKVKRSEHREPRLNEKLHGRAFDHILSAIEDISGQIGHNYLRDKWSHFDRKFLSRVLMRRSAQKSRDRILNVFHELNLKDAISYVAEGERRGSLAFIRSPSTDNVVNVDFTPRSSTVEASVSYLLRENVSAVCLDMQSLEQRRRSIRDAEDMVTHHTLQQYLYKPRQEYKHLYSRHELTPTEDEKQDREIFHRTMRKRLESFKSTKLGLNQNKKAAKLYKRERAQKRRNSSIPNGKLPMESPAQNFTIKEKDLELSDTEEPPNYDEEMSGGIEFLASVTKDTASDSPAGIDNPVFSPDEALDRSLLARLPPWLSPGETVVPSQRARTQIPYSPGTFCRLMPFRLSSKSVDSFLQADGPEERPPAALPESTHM
T1 sequence (Q99653 2-195 partner limits assumed): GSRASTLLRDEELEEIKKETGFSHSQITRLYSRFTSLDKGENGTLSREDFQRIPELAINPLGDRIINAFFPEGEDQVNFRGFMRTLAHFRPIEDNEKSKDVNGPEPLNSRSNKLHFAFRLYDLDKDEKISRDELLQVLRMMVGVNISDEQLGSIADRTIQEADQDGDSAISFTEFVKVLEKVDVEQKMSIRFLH
Nature of the assay: persistent inhibition of NHE3 in the cell-based assay of example 181 (4-chloro vs 4-cyano pairs). The settings on record: for IC50: cell-based assay of example 181, after washout, read-out: pIC50 (persistent) (converted); for Percent Inhibition: cell-based assay of example 181, persistent. The procedure: The following pairs of compounds differ only in the 4-position substituent (either chloro (X—Cl) or cyano (X—CN)):
The ability of compounds to inhibit human and rat NHE-3-mediated Na^+ dependent H^+ antiport after application and washout was measured using a modification of the pH sensitive dye method described above. PS120 fibroblasts stably expressing human NHE3 and NHERF2 were obtained from Mark Donowitz (Baltimore, Md.). Opossum kidney (OK) cells were obtained from the ATCC and propagated per their instructions. The rat NHE-3 gene was introduced into OK cells via electroporation, and cells were seeded into 96 well plates and grown overnight. Medium was aspirated from the wells, cells were washed once with NaCl-HEPES buffer (100 mM NaCl, 50 mM HEPES, 10 mM glucose, 5 mM KCl, 2 mM CaCl2, 1 mM MgCl2, pH 7.4), then overlayed with NaCl-HEPES buffer containing 0-30 μM test compound. After a 60 min incubation at room temperature, the test drug containing buffer was aspirated from the cells. Following aspiration, cells were washed once with NaCl-HEPES buffer without drug, then incubated for 30 min at 37° C. with NH4Cl-HEPES buffer (20 mM NH4Cl, 80 mM NaCl, 50 mM HEPES, 5 mM KCl, 2 mM CaCl2, 1 mM MgCl2, pH 7.4) containing 5 μM BCECF-AM. Cells were washed once with Ammonium free, Na^+-free HEPES (100 mM choline, 50 mM HEPES, 10 mM glucose, 5 mM KCl, 2 mM CaCl2, 1 mM MgCl2, pH 7.4) and incubated in the same buffer for 10 minutes at room temperature to lower intracellular pH. NHE-3-mediated recovery of neutral intracellular pH was initiated (10 min after compound washout) by addition of Na-HEPES buffer. […] Changes in intracellular pH were monitored using a FLIPR Tetra® (Molecular Devices, Sunnyvale, Calif.) by excitation at λex 439 to 505 nm, and measuring BCECF fluorescence at λem 538 nm. The initial rate of the fluorescence ratio change was used as a measure of NHE-mediated Na^+/H^+ activity, and reported as the change in fluorescence ratio per minute.

The target of assay [2] is T1, NHE3. In words: Cell-based assay of NHE-3 activity (pre-incubation inhibition), human. The settings on record: human Preincubation. In short, it runs like this: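 PS120 fibroblasts stably expressing human NHE3 and NHERF2, loaded 30 min at 37 °C with 5 μM BCECF-AM in NH4Cl buffer, then acidified 10 min at room temperature in Na+-free buffer with 0–30 μM compound. Initial rate of BCECF fluorescence ratio change (FLIPR) per minute taken as Na+/H+ activity.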

Assay [3] relates to absorption of sodium from the intestinal lumen. Nature of the assay: Inhibition of intestinal sodium absorption in mice. The assay is classed as in vivo. The following applies: CD-1 mice, 15 mg/kg oral gavage twice daily; for response vs control in vivo at 15 mg/kg: Mus musculus, 72 h, day 3, normalized to dietary sodium intake. The procedure: Urinary and fecal sodium excretions were measured to assess the ability of selected example compounds to inhibit the absorption of sodium from the intestinal lumen. In addition, an assessment of the absence or presence of diarrhea in response to compound treatment was made. Approximately eight-week old, male, CD-1 mice were purchased from Envigo (Livermore, Calif.), were housed 6 per cage and acclimated for at least 48 hours before study initiation. Animals were fed Harlan Teklad Global TD.160470 rodent chow (Madison, Wis.), standard laboratory rodent chow Harlan Teklad Global 2018 with the addition of 0.4% inorganic phosphorous. […] To initiate the study, mice were weighed and then individually placed in metabolic cages. Following a 3-day acclimation period to the metabolic cage, a 24-hr baseline collection of urine and feces was performed. […] Each day, measurements of body weight. 24-hour food intake, water intake, urine volume and wet fecal weight were recorded, along with any observation of diarrhea. Fecal samples were dried using a lyophilizer for at least 3 days, following which dry weight was recorded and fecal fluid content was calculated based on the difference between the wet and dry stool weights. Fecal fluid content on day 3 of compound treatment was calculated as a change from the vehicle group mean. For urine samples, the volumes were determined gravimetrically. Feces and urine were analyzed for sodium content by microwave plasma-atomic emission spectroscopy or ion chromatography, respectively. Urine samples were analyzed on an ion chromatography system (Thermo Fisher ICS-3000 or ICS-5000+) coupled with conductivity detectors. Chromatographic separation of cations was performed using an IonPac CS12A (Thermo Fisher) 2×250 mm analytical column with an isocratic elution using […] methanesulfonic acid. Concentrations were interpolated from a a standard curve (prepared in 10 mM HCl) for sodium ion based on retention time and peak area. Fecal sample analysis by Microwave Plasma Atomic Emission Spectrometry (MP-AES). Dry fecal samples were ground into a fine powder on a homogenizer and the ground samples (400-600 mg aliquots weighed) were digested with nitric acid by microwave method (Mars 6). These digested samples were diluted with 1% Nitric acid and analyzed on Agilent 4100 MP-AES. Concentrations were calculated relative to a standard curve (prepared in 1% Nitric acid) for sodium based on the signal intensity. Sodium was detected at a wavelength of 588.995 nm. Twenty-four-hour urinary sodium excretion (ma/24-hours) was calculated by multiplying urinary sodium concentration by 24-hour urine volume. Twenty-four-hour fecal sodium excretion (mg/24-hours) was calculated by multiplying fecal sodium concentration by 24-hour dry fecal weight. The urinary and fecal sodium excretion on day 3 of compound treatment were normalized to dietary sodium intake and expressed as a percentage of the vehicle mean.

The target in assay [4] is T1, NHE3. In words: Cell-based assay of NHE-3 activity (persistent inhibition), human. The following applies: human Persistence, 60 min incubation then washout. In short, it runs like this:
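PS120 fibroblasts expressing human NHE3 with NHERF2 exposed to 0-30 μM compound for 60 min at RT, then washed out; cells acid-loaded by NH4Cl prepulse with BCECF-AM and Na+-free buffer. Na+-driven pH recovery started 10 min post-washout; initial rate of BCECF ratio change (FLIPR) taken as activity.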

Like-named read-outs stand apart in the source and are kept apart here.

As to `C[C@@H]1CN([C@H]2Cc3c(C#N)cc(Cl)cc3[C@@H]2Oc2ccc(S(=O)(=O)N[C@@H]3CCN(CCOCCNC(=O)NCCCCNC(=O)NCCOCCN4CC[C@@H](NS(=O)(=O)c5ccc(O[C@H]6c7cc(Cl)cc(C#N)c7C[C@@H]6N6CCN[C@H](C)C6)cc5)C4)C3)cc2)CCN1` [A-CN, 3-(2-{2-[(3R)-3-(4-{[(1S,2S)-6-chloro-4-cyano-2-[(3R)-3-methylpiperazin-1-yl]-2,3-dihydro-1H-inden-1-yl]oxy}benzenesulfonamido)pyrrolidin-1-yl]ethoxy}ethyl)-1-(4-{[(2-{2-[(3R)-3-(4-{[(1S,2S)-6-chloro-4-cyano-2-[(3R)-3-methylpiperazin-1-yl]-2,3-dihydro-1H-inden-1-yl]oxy}benzenesulfonamido)pyrrolidin-1-yl]ethoxy}ethyl)carbamoyl]amino}butyl)urea], on NHE3 [1], the IC50 is 0.631 nM and the “Percent Inhibition” value turned out to be 101%.

On to `C[C@@H]1CN([C@H]2Cc3c(Cl)cc(Cl)cc3[C@@H]2Oc2ccc(S(=O)(=O)N[C@H]3CCN(CCOCCNC(=O)NCCCCNC(=O)NCCOCCN4CC[C@H](NS(=O)(=O)c5ccc(O[C@H]6c7cc(Cl)cc(Cl)c7C[C@@H]6N6CCN[C@H](C)C6)cc5)C4)C3)cc2)CCN1` [A-Cl, 3-(2-{2-[(3S)-3-(4-{[(1S,2S)-4,6-dichloro-2-[(3R)-3-methylpiperazin-1-yl]-2,3-dihydro-1H-inden-1-yl]oxy}benzenesulfonamido)pyrrolidin-1-yl]ethoxy}ethyl)-1-(4-{[(2-{2-[(3S)-3-(4-{[(1S,2S)-4,6-dichloro-2-[(3R)-3-methylpiperazin-1-yl]-2,3-dihydro-1H-inden-1-yl]oxy}benzenesulfonamido)pyrrolidin-1-yl]ethoxy}ethyl)carbamoyl]amino}butyl)urea], for which, on NHE3 [1], the IC50 was 2.51 nM and the “Percent Inhibition” value is given as 101%.

For the molecule `C[C@@H]1CN([C@H]2Cc3c(C#N)cc(Cl)cc3[C@@H]2Oc2ccc(S(=O)(=O)N[C@H]3CCN(C(=O)CNC(=O)CNC(=O)NCCCCNC(=O)NCC(=O)NCC(=O)N4CC[C@H](NS(=O)(=O)c5ccc(O[C@H]6c7cc(Cl)cc(C#N)c7C[C@@H]6N6CCN[C@H](C)C6)cc5)C4)C3)cc2)CCN1` [B-CN, N-{2-[(3S)-3-(4-{[(1S,2S)-6-chloro-4-cyano-2-[(3R)-3-methylpiperazin-1-yl]-2,3-dihydro-1H-inden-1-yl]oxy}benzenesulfonamido)pyrrolidin-1-yl]-2-oxoethyl}-2-({[4-({[({2-[(3S)-3-(4-{[(1S,2S)-6-chloro-4-cyano-2-[(3R)-3-methylpiperazin-1-yl]-2,3-dihydro-1H-inden-1-yl]oxy}benzenesulfonamido)pyrrolidin-1-yl]-2-oxoethyl}carbamoyl)methyl]carbamoyl}amino)butyl]carbamoyl}amino)acetamide], on NHE3 [1], the IC50 was 0.126 nM and the “Percent Inhibition” value is given as 110%.

Take `CN(C)[C@@H]1CCCN([C@H]2Cc3c(Cl)cc(Cl)cc3[C@@H]2Oc2ccc(S(=O)(=O)NCCOCCOCCNC(=O)NCCCCNC(=O)NCCOCCOCCNS(=O)(=O)c3ccc(O[C@H]4c5cc(Cl)cc(Cl)c5C[C@@H]4N4CCC[C@@H](N(C)C)C4)c(F)c3)cc2F)C1` [Example 27, 3-[2-(2-[2-[(4-[[(1S,2S)-4,6-Dichloro-2-[(3R)-3-(dimethylamino)piperidin-1-yl]-2,3-dihydro-1H-inden-1-yl]oxy]-3-fluorobenzene)sulfonamido]ethoxy]ethoxy)ethyl]-1-[4-([[2-(2-[2-[(4-[[(1S,2S)-4,6-dichloro-2-[(3R)-3-(dimethylamino)piperidin-1-yl]-2,3-dihydro-1H-inden-1-yl]oxy]-3-fluorobenzene)sulfonamido]ethoxy]ethoxy)ethyl]carbamoyl]amino)butyl]urea; bis(trifluoroacetic acid)]: the “% inhibition” value at NHE3 [2] and at NHE3 [4] was “C (>70%)” throughout. Further, in assay [3] (day 3, change from vehicle group mean), the “Fecal fluid content (Δ from vehicle)” value was “C (>10)”. In addition, the response vs control in vivo at 15 mg/kg is greater than 200% in assay [3] (read-out: Fecal Na Excretion (% of vehicle)) and 50 to 70% in assay [3] (read-out: Urinary Na Excretion (% of vehicle)).
